# Experimental data reported in publication PMC7914897, “Cytotoxic Potential of a-Azepano- and 3-Amino-3,4-SeCo-Triterpenoids” (International Journal of Molecular Sciences, 2021).
# Where two headings read alike, the source gives them in different places.
# What was measured:
# [1] = test system: NCI-H226 (NSC lung cancer); test: NCI-60 screen (SRB, 48 h); details: Homo sapiens
# [2] = test system: OVCAR-3 (Ovarian cancer); test: cells; details: Homo sapiens
# [3] = test system: PC-3 (Prostate cancer); test: NCI-60 screen (SRB, 48 h); details: Homo sapiens
# [4] = test system: SNB-19 (CNS cancer); test: NCI-60 screen (SRB, 48 h); details: Homo sapiens
# [5] = test system: panel of approximately 60 cancer cell lines; test: NCI-60 screen (SRB, 48 h), full panel
# [6] = test system: HOP-62 (NSC lung cancer); test: NCI-60 screen (SRB, 48 h); details: Homo sapiens
# [7] = test system: SF-268 (CNS cancer); test: NCI-60 screen (SRB, 48 h); details: Homo sapiens
# [8] = test system: DU-145 (Prostate cancer); test: NCI-60 screen (SRB, 48 h); details: Homo sapiens
# [9] = test system: IGROV1 (Ovarian cancer); test: NCI-60 screen (SRB, 48 h); details: Homo sapiens
# [10] = test system: A549/ATCC (NSC lung cancer); test: NCI-60 screen (SRB, 48 h); details: Homo sapiens
# [11] = test system: MDA-MB-31/ATCC (Breast cancer); test: NCI-60 screen (SRB, 48 h); details: Homo sapiens
# [12] = test system: HCC-2998 (Colon cancer); test: NCI-60 screen (SRB, 48 h); details: Homo sapiens
# [13] = test system: HCT-15 (Colon cancer); test: NCI-60 screen (SRB, 48 h); details: Homo sapiens
# [14] = test system: Leukemia subpanel; test: cells; details: Homo sapiens
# [15] = test system: SK-MEL-5 (Melanoma); test: NCI-60 screen (SRB, 48 h); details: Homo sapiens
# [16] = test system: OVCAR-8 (Ovarian cancer); test: NCI-60 screen (SRB, 48 h); details: Homo sapiens
# [17] = test system: UACC-257 (Melanoma); test: NCI-60 screen (SRB, 48 h); details: Homo sapiens
# [18] = test system: Renal Cancer subpanel; test: NCI-60 screen, subpanel; details: Homo sapiens
# [19] = test system: COLO 205 (Colon cancer); test: NCI-60 screen (SRB, 48 h); details: Homo sapiens
# [20] = test system: NCI-H23 (NSC lung cancer); test: NCI-60 screen (SRB, 48 h); details: Homo sapiens
# [21] = test system: UACC-62 (Melanoma); test: NCI-60 screen (SRB, 48 h); details: Homo sapiens
# [22] = test system: NCI-H322M (NSC lung cancer); test: NCI-60 screen (SRB, 48 h); details: Homo sapiens
# [23] = test system: NCI-H522 (NSC lung cancer); test: NCI-60 screen (SRB, 48 h); details: Homo sapiens
# [24] = test system: TK-10 (Renal cancer); test: NCI-60 screen (SRB, 48 h); details: Homo sapiens
# [25] = test system: CAKI-1 (Renal cancer); test: NCI-60 screen (SRB, 48 h); details: Homo sapiens
# [26] = test system: HS 578T (Breast cancer); test: NCI-60 screen (SRB, 48 h); details: Homo sapiens
# [27] = test system: OVCAR-5 (Ovarian cancer); test: NCI-60 screen (SRB, 48 h); details: Homo sapiens
compound,measurement,setting,value
Cc1ccc(S(=O)(=O)OC[C@@]2(C)CC[C@]3(C)CC[C@]4(C)C(=C3C2)C=C[C@@H]2[C@@]3(C)CCCNC(C)(C)[C@@H]3CC[C@]24C)cc1 [Compound 16],GI50,[1]; NCI-H226,1.66 µM
same,IC (TGI),"[1]; NCI-H226, 48 h, read-out: TGI",3.47 µM
same,GI50,[2]; OVCAR-3,1.88 µM
same,IC (TGI),"[2]; OVCAR-3, 48 h, read-out: TGI",3.56 µM
same,GI50,[3]; PC-3,1.53 µM
same,IC (TGI),"[3]; PC-3, 48 h, read-out: TGI",2.98 µM
same,CC50,"[3]; PC-3, read-out: LC50",5.82 µM
same,GI50,[4]; SNB-19,1.91 µM
same,IC (TGI),"[4]; SNB-19, 48 h, read-out: TGI",3.62 µM
same,Positive Cytostatic Effect (cell lines with percent growth 0 to 50 / total),[5]; 1 dose 10 µM,12/60
same,Positive Cytotoxic Effect (cell lines with percent growth < 0 / total),[5]; 1 dose 10 µM,31/60
same,number of cancer cell lines the compound was active against,[5]; 1 dose 10 µM,40 cell lines
same,activity at 10 µM,"[5]; Homo sapiens, 48 h, read-out: Mean Growth, %",-0.81%
same,activity at 10 µM,"[5]; Homo sapiens, 48 h, read-out: Range of Growth, %",-99.2 to 104%
same,IC (TGI),"[5]; Homo sapiens, 48 h, read-out: TGI MG_MID60, average over all cell lines",3.52 µM
same,GI50,"[5]; Homo sapiens, read-out: GI50 MG_MID60",1.72 µM
same,GI50,"[5]; Homo sapiens, read-out: GI50 against all human tumor cell lines",< 3 µM
same,GI50,"[5]; Homo sapiens, read-out: GI50 against the most sensitive cell lines",0.2 to 0.94 µM
same,GI50,[6]; HOP-62,1.84 µM
same,IC (TGI),"[6]; HOP-62, 48 h, read-out: TGI",3.59 µM
same,GI50,[7]; SF-268,1.95 µM
same,IC (TGI),"[7]; SF-268, 48 h, read-out: TGI",4.12 µM
same,CC50,"[7]; SF-268, read-out: LC50",8.68 µM
same,GI50,[8]; DU-145,1.81 µM
same,IC (TGI),"[8]; DU-145, 48 h, read-out: TGI",3.4 µM
same,CC50,"[8]; DU-145, read-out: LC50",6.39 µM
same,GI50,[9]; IGROV-1,1.79 µM
same,IC (TGI),"[9]; IGROV-1, 48 h, read-out: TGI",3.43 µM
same,GI50,[10]; A549,1.86 µM
same,IC (TGI),"[10]; A549, 48 h, read-out: TGI",3.62 µM
same,GI50,[11],1.98 µM
same,IC (TGI),"[11]; 48 h, read-out: TGI",3.91 µM
same,GI50,[12]; HCC 2998,1.58 µM
same,IC (TGI),"[12]; HCC 2998, 48 h, read-out: TGI",3.18 µM
same,GI50,[13]; HCT-15,1.61 µM
same,IC (TGI),"[13]; HCT-15, 48 h, read-out: TGI",3.17 µM
same,IC (TGI),"[14]; 48 h, read-out: TGI MG_MID",4.72 µM
same,GI50,[14]; read-out: GI50 MG_MID,1.61 µM
same,CC50,[14]; read-out: LC50 MG_MID,> 100 µM
same,GI50,[15]; SK-MEL-5,1.82 µM
same,IC (TGI),"[15]; SK-MEL-5, 48 h, read-out: TGI",3.39 µM
same,GI50,[16]; OVCAR-8,2.12 µM
same,IC (TGI),"[16]; OVCAR-8, 48 h, read-out: TGI",4.57 µM
same,GI50,[17]; UACC-257,1.85 µM
same,IC (TGI),"[17]; UACC-257, 48 h, read-out: TGI",3.68 µM
same,IC (TGI),"[18]; 48 h, read-out: TGI MG_MID",3.19 µM
same,GI50,[18]; read-out: GI50 MG_MID,1.67 µM
same,CC50,[18]; read-out: LC50 MG_MID,5.92 µM
same,GI50,[19]; COLO 205,1.62 µM
same,IC (TGI),"[19]; COLO 205, 48 h, read-out: TGI",3.26 µM
same,GI50,[20]; NCI-H23,1.82 µM
same,IC (TGI),"[20]; NCI-H23, 48 h, read-out: TGI",3.42 µM
same,CC50,"[20]; NCI-H23, read-out: LC50",6.41 µM
same,GI50,[21]; UACC-62,1.84 µM
same,IC (TGI),"[21]; UACC-62, 48 h, read-out: TGI",3.39 µM
same,GI50,[22],1.62 µM
same,IC (TGI),"[22]; 48 h, read-out: TGI",3.01 µM
same,CC50,[22]; read-out: LC50,5.62 µM
same,GI50,[23]; NCI-H522,1.7 µM
same,IC (TGI),"[23]; NCI-H522, 48 h, read-out: TGI",3.36 µM
same,CC50,"[23]; NCI-H522, read-out: LC50",6.64 µM
same,GI50,[24]; TK-10,1.88 µM
same,IC (TGI),"[24]; TK-10, 48 h, read-out: TGI",3.59 µM
same,CC50,"[24]; TK-10, read-out: LC50",6.85 µM
same,GI50,[25]; CAKI-1,1.61 µM
same,IC (TGI),"[25]; CAKI-1, 48 h, read-out: TGI",3.06 µM
same,CC50,"[25]; CAKI-1, read-out: LC50",5.81 µM
same,GI50,[26],1.94 µM
same,IC (TGI),"[26]; 48 h, read-out: TGI",4.26 µM
same,CC50,[26]; read-out: LC50,9.37 µM
same,GI50,[27]; OVCAR-5,1.77 µM
same,IC (TGI),"[27]; OVCAR-5, 48 h, read-out: TGI",3.21 µM
same,CC50,"[27]; OVCAR-5, read-out: LC50",5.81 µM
